From article PMC12155096 (International Journal of Molecular Sciences, 2025)
Counter-ions that a name gives are not always drawn. Like-named read-outs stand apart in the source and are kept apart here.

Tests used:
Assay in all cases: biochemical; call rule not given here
[1] = biological target: human CYP2C9 (Homo sapiens, UniProt P11712)
[2] = biological target: human CYP2C19 (Homo sapiens, UniProt P33261)
[3] = biological target: CYP3A4 (Homo sapiens, UniProt P08684)
[4] = biological target: human CYP2D6 (Homo sapiens, UniProt P10635)
Chain of human CYP2D6 (P10635 whole entry): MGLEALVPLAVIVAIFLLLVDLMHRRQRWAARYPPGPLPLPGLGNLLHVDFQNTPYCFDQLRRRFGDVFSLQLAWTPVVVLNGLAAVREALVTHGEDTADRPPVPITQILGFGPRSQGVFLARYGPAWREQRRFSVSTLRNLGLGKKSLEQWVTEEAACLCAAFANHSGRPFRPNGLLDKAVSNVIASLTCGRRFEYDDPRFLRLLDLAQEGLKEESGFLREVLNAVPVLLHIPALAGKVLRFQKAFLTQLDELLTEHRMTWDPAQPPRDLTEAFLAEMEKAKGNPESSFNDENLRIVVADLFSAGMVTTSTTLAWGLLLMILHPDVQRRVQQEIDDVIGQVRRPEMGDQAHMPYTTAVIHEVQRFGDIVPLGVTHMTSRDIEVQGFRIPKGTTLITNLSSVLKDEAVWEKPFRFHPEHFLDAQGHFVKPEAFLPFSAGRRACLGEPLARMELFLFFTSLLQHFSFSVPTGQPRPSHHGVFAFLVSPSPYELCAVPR

[5] = biological target: T1, human CYP1A2 (Homo sapiens, UniProt P05177)
T1 sequence (P05177 1-516): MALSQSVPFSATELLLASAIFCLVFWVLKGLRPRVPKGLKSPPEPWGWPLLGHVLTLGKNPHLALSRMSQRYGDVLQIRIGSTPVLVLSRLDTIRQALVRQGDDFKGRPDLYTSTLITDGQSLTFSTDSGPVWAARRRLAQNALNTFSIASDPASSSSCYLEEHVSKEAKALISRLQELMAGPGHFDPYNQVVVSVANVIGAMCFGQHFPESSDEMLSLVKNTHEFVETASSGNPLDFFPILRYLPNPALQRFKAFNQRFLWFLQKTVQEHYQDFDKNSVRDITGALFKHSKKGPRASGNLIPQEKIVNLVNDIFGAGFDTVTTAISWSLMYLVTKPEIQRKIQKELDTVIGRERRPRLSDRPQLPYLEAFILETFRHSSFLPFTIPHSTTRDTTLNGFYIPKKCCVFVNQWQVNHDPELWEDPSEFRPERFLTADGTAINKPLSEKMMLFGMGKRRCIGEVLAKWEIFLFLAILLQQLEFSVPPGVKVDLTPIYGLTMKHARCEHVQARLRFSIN

[6] = biological target: Photinus pyralis (firefly) luciferase (Photinus pyralis, UniProt P08659); assay type: biochemical
Chain of Photinus pyralis (firefly) luciferase (P08659 whole entry): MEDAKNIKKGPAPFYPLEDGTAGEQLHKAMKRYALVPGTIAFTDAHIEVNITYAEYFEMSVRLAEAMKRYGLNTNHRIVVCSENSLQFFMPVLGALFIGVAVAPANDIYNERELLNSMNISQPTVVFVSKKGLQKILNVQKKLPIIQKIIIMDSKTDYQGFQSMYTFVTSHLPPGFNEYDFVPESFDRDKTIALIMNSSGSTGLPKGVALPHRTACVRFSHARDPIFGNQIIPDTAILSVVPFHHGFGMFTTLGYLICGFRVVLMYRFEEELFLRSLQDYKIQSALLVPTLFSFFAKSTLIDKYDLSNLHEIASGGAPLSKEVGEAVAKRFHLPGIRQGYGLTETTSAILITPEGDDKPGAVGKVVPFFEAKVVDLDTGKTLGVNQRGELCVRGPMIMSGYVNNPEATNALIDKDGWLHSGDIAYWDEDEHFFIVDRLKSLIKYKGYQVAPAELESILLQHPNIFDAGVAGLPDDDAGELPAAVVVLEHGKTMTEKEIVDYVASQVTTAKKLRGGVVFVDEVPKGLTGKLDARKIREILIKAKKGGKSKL

[7] = CYP2C9 IC50 (half-maximal inhibitory concentration)
[8] = CYP2C19 IC50 (half-maximal inhibitory concentration)
[9] = CYP3A4 IC50 (half-maximal inhibitory concentration)
[10] = CYP2D6 IC50 (half-maximal inhibitory concentration)
[11] = CYP1A2 IC50 (half-maximal inhibitory concentration)

Chain of CYP3A4 (P08684 whole entry): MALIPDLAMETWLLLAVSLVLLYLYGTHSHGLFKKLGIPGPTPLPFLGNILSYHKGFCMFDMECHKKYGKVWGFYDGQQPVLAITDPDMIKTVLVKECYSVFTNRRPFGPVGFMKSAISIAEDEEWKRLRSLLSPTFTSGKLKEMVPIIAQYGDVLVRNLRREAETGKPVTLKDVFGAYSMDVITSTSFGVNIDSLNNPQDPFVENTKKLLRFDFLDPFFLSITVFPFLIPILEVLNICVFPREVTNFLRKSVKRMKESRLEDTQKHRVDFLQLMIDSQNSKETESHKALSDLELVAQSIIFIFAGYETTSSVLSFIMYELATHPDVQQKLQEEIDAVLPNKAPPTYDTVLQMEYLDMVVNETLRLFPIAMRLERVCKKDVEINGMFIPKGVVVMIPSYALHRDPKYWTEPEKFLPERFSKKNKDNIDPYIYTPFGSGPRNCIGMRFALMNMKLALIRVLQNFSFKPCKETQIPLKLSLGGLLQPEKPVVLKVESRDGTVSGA
Chain of human CYP2C19 (P33261 whole entry): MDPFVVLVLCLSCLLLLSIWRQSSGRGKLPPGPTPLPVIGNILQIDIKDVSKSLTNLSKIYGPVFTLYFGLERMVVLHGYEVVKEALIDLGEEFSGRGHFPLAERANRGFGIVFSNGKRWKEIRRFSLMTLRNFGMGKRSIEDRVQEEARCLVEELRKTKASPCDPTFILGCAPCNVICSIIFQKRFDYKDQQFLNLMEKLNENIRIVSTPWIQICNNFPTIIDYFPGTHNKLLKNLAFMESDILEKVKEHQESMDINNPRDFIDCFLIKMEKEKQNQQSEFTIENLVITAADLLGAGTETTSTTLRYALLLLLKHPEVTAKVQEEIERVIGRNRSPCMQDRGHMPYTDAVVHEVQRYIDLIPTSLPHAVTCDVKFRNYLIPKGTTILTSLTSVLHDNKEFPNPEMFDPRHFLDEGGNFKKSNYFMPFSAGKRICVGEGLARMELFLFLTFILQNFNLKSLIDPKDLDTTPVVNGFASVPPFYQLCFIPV
Chain of human CYP2C9 (P11712 whole entry): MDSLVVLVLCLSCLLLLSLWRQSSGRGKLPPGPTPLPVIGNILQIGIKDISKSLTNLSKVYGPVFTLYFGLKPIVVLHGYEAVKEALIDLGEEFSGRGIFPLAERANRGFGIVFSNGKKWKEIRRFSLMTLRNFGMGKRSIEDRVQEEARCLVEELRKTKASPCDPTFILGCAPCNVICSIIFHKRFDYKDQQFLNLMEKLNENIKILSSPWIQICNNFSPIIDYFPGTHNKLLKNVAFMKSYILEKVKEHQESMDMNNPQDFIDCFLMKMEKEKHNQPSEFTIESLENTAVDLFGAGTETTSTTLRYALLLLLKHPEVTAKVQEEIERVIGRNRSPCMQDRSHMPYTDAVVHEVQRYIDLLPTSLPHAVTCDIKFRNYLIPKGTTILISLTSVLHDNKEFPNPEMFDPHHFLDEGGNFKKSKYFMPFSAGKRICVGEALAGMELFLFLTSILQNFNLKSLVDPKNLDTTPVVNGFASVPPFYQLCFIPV

Compound | IC50 [1, 7] | IC50 [2, 8] | IC50 [3, 9] | IC50 [4, 10] | IC50 [5, 11] | Luciferase IC50 (half-maximal inhibitory concentration) [6] | IC50 [1] | IC50 [4] | IC50 ([2]; CYP2C19 IC50) | IC50 ([3]; CYP3A4 IC50) | IC50 ([5]; CYP1A2 IC50) | also measured
CCCCOCN(C(=O)CCl)c1c(CC)cccc1CC [Butachlor] | 5.09 µM | 0.83 µM | 6.9 µM | 50.9 µM | 51.6 µM | Inactive | – | – | – | – | – | –
CCOCn1c(-c2ccc(Cl)cc2)c(C#N)c(Br)c1C(F)(F)F [Chlorfenapyr] | 9.71 µM | 4.66 µM | 37 µM | 33 µM | 0.6 µM | Inactive | – | – | – | – | – | –
O=C1c2ccccc2C(=O)C1C(=O)C(c1ccccc1)c1ccc(Cl)cc1 (stereo not drawn) [Chlorophacinone] | 0.76 µM | 11 µM | 33.6 µM | 44.9 µM | 8.52 µM | Inactive | – | – | – | – | – | AC50 ([1]; CYP2C9 AC50 (half-maximal activity concentration)): 0.76 µM; AC50 ([2]; CYP2C19 AC50 (half-maximal activity concentration)): 11 µM; AC50 ([3]; CYP3A4 AC50 (half-maximal activity concentration)): 33.6 µM; AC50 ([4]; CYP2D6 AC50 (half-maximal activity concentration)): 44.9 µM; AC50 ([5]; CYP1A2 AC50 (half-maximal activity concentration)): 8.52 µM
CCOP(=S)(OCC)SC(CCl)N1C(=O)c2ccccc2C1=O (stereo not drawn) [Dialifor] | – | 0.38 µM | 1.65 µM | – | 68.4 µM | Inactive | 1.13 µM | 38.5 µM | – | – | – | –
CC1COC(Cn2cncn2)(c2ccc(Oc3ccc(Cl)cc3)cc2Cl)O1 (stereo not drawn) [Difenoconazole] | 1.22 µM | 0.08 µM | 0.08 µM | 34.4 µM | 27.4 µM | Inactive | – | – | – | – | – | –
CC(C(O)c1ccccc1)N(C)CCOC(c1ccccc1)c1ccccc1 (stereo not drawn) [Difeterol] | – | – | – | – | – | Inactive | 16.8 ± 1.09 µM | 0.11 ± 0.06 µM | – | – | – | IC50 [2]: 7.12 ± 1.98 µM; IC50 [3]: 0.62 ± 0.07 µM; IC50 [5]: 23.5 ± 5.69 µM
CCOP(=S)(OCC)SCCS(=O)(=O)CC [Disulfoton sulfone] | – | 0.3 µM | 2.61 µM | – | 26 µM | Inactive | 1.64 µM | 13.4 µM | – | – | – | –
CCCCCCCCCCCCN [Dodecylamine hydrochloride] | – | – | – | – | – | – | – | – | 0.47 µM | 34.3 µM | 2.55 µM | IC50 ([1]; CYP2C9 IC50): 6.64 µM; IC50 ([4]; CYP2D6 IC50): 3.3 µM; Luciferase IC50 [6]: Inactive
O=S1OCC2C(CO1)C1(Cl)C(Cl)=C(Cl)C2(Cl)C1(Cl)Cl (stereo not drawn) [Endosulfan] | – | – | – | – | – | – | – | – | 3.19 µM | 0.39 µM | 35.8 µM | IC50 ([1]; CYP2C9 IC50): 37.2 µM; IC50 ([4]; CYP2D6 IC50): 18 µM; Luciferase IC50 [6]: Inactive
CCC(=O)O[C@H]1[C@H](O[C@@H]2[C@@H](C)[C@H](O[C@H]3C[C@@](C)(OC)[C@@H](O)[C@H](C)O3)[C@@H](C)C(=O)O[C@H](CC)[C@@](C)(O)[C@H](O)[C@@H](C)C(=O)[C@H](C)C[C@@]2(C)O)O[C@H](C)C[C@@H]1N(C)C [Erythromycin estolate] | – | – | – | – | – | – | 32.7 ± 12.3 µM | 30.5 ± 9.76 µM | – | – | – | IC50 [2]: 47.1 µM; IC50 [3]: 0.29 ± 0.04 µM; IC50 [5]: 33.5 ± 11 µM; IC50 [6]: 55 µM
CCOP(=S)(OCC)SCSP(=S)(OCC)OCC [Ethion] | – | – | – | – | – | – | 0.52 µM | 37 µM | 0.34 µM | 0.97 µM | 19.6 µM | Luciferase IC50 [6]: Inactive
CCOc1cc(C(C)(C)C)ccc1C1COC(c2c(F)cccc2F)=N1 (stereo not drawn) [Etoxazole] | 9.94 µM | 3.43 µM | 0.11 µM | 10.5 µM | 19.6 µM | Inactive | – | – | – | – | – | –
OC(c1ccc(Cl)cc1)(c1cncnc1)c1ccccc1Cl (stereo not drawn) [Fenarimol] | 6.1 µM | 0.24 µM | 0.17 µM | 35.6 µM | 71.4 µM | Inactive | – | – | – | – | – | –
N#CC(CCc1ccc(Cl)cc1)(Cn1cncn1)c1ccccc1 (stereo not drawn) [Fenbuconazole] | 1.94 µM | 0.17 µM | 0.05 µM | 38.6 µM | 35.8 µM | Inactive | – | – | – | – | – | –
COP(=S)(OC)Oc1ccc([N+](=O)[O-])c(C)c1 [Fenitrothion] | 6.12 µM | 0.55 µM | 8.48 µM | 35 µM | 1.04 µM | – | – | – | – | – | – | IC50 [6]: 67 µM
O=[N+]([O-])c1cc(C(F)(F)F)c(Cl)c([N+](=O)[O-])c1Nc1ncc(C(F)(F)F)cc1Cl [Fluazinam] | 0.73 µM | 14.8 µM | 18.7 µM | 46.2 µM | 35.6 µM | – | – | – | – | – | – | IC50 [6]: 89.4 µM
C[Si](Cn1cncn1)(c1ccc(F)cc1)c1ccc(F)cc1 [Flusilazole] | 2.28 µM | 0.06 µM | 0.16 µM | 33 µM | 27.9 µM | Inactive | – | – | – | – | – | –
OC(Cn1cncn1)(c1ccc(F)cc1)c1ccccc1F (stereo not drawn) [Flutriafol] | 0.77 µM | 1.63 µM | 0.24 µM | 37 µM | 35.7 µM | Inactive | – | – | – | – | – | –
CCCCC(O)(Cn1cncn1)c1ccc(Cl)cc1Cl (stereo not drawn) [Hexaconazole] | 0.52 µM | 0.3 µM | 0.11 µM | 33 µM | 37 µM | Inactive | – | – | – | – | – | –
COP(N)(=S)Oc1ccccc1C(=O)OC(C)C (stereo not drawn) [Isocarbophos] | 5.11 µM | 0.13 µM | 1.61 µM | 46.1 µM | 1.14 µM | Inactive | – | – | – | – | – | –
CCOP(=S)(NC(C)C)Oc1ccccc1C(=O)OC(C)C (stereo not drawn) [Isofenphos] | – | 0.19 µM | 0.68 µM | – | 9.71 µM | Inactive | 1.44 µM | 60.6 µM | – | – | – | –
CCOP(=S)(OCC)Oc1cc(-c2ccccc2)on1 [Isoxathion] | – | – | – | – | – | – | 0.75 µM | 35.6 µM | 2.55 µM | 2.11 µM | 3.92 µM | IC50 [6]: 33 µM
O=C1C2(Cl)C3(Cl)C4(Cl)C(Cl)(Cl)C5(Cl)C3(Cl)C1(Cl)C5(Cl)C24Cl (stereo not drawn) [Kepone] | – | – | – | – | – | – | 6.47 µM | 67.9 µM | 0.87 µM | 3.13 µM | 36.4 µM | Luciferase IC50 [6]: Inactive
CCCCN(CCCC)CC(O)c1cc(Cl)cc2c1-c1ccc(Cl)cc1/C2=C/c1ccc(Cl)cc1 (stereo not drawn) [Lumefantrine] | – | – | – | – | – | – | – | – | 26.9 µM | 16.8 µM | 14.8 µM | IC50 ([1]; CYP2C9 IC50): 16.2 µM; IC50 ([4]; CYP2D6 IC50): 0.69 µM; Luciferase IC50 [6]: Inactive
CCN(CC)C(=O)[C@@H]1C=C2c3cccc4[nH]cc(c34)C[C@H]2N(C)C1 [Lysergide] | – | – | – | – | – | – | – | – | 156 µM | 71.8 µM | 151 µM | IC50 ([1]; CYP2C9 IC50): 72.9 µM; IC50 ([4]; CYP2D6 IC50): 0.43 µM; Luciferase IC50 [6]: Inactive
CCOC(=O)N(C)C(=O)CSP(=S)(OCC)OCC [Mecarbam] | – | – | – | – | – | – | – | – | 0.09 µM | 2.6 µM | 2.91 µM | IC50 ([1]; CYP2C9 IC50): 0.7 µM; IC50 ([4]; CYP2D6 IC50): 27.5 µM; Luciferase IC50 [6]: Inactive
CC(C)Nc1ccc(Nc2ccccc2)cc1 [N-Isopropyl-N'-phenyl-p-phenylenediamine] | – | – | – | – | – | – | – | – | 4.25 µM | 17.3 µM | 35.5 µM | IC50 ([1]; CYP2C9 IC50): 0.97 µM; IC50 ([4]; CYP2D6 IC50): 9.04 µM; IC50 [6]: 34.2 µM; Luciferase Efficacy [6]: 34.17 ± 2.23 (-75 ± 7) %
CCOC(=O)C(SP(=S)(OC)OC)c1ccccc1 (stereo not drawn) [Phenthoate] | – | – | – | – | – | – | 1.28 µM | 49.3 µM | 0.3 µM | 3.33 µM | 3.79 µM | Luciferase IC50 [6]: Inactive
